The values that follow come from patent US8912162B2, “Parenteral formulations of elacytarabine derivatives” (Clavis Pharma ASA, priority 2010, dated 2014).

A short description of series [1]: Solubility of elacytarabine in water, phosphate buffer and soybean oil based emulsions. Format: physicochemical. The source says: Nevertheless, formulation of a therapeutically effective amount of the poorly soluble derivatives of formula (I) into a pharmaceutical composition suitable for parenteral administration represents a problem. For the sake of intravenous administration of the said derivatives, the composition of the excipients should be selected so that the said derivatives are solubilised. The cytarabine derivatives of formula (I) are amphiphilic and have poor solubility both in water and in oils. This limits the choice of potential excipients that can solubilise them.

Series [2] is described as follows: Plasma concentration of elacytarabine, Ara-C and Ara-U in patients (FIG. 2). Type of series: in vivo. As to conditions: average values for 61 patients. The source says:
FIG. 2: Plasma concentration of elacytarabine, Ara-C and Ara-U (deamination metabolite of Ara-C), average values for 61 patients.

In series [3] the test system is MDR resistant cells (A549). As to conditions: A549, found earlier; cited from earlier work.
Series [4] concerns Cis-platin resistant cells (NHIK 3025/DDP). Particulars: found earlier; cited from earlier work.
For series [5], the system named is acute myeloid leukemia (AML). The series is described as follows: Phase II study of single agent elacytarabine as second salvage therapy. Type of series: in vivo, patients. As to the method:
The formulation described in example 1 was administered to 61 patients in a phase II study of single agent elacytarabine as second salvage therapy for acute myeloid leukemia (AML). […] The response rate was 15%. The median overall survival was 5.3 months versus 1.5 months in the historical control. The median survival for the responders was 13.5 months. The 6 month survival rate was 44%.

Regarding `CCCCCCCC/C=C/CCCCCCCC(=O)OC[C@H]1O[C@@H](n2ccc(N)nc2=O)[C@@H](O)[C@@H]1O` [elacytarabine, 5′-O-(trans-9″-octadecenoyl)-1-β-D-arabinofuranosylcytosine], the solubility in series [1] (aqueous buffer, phosphate buffer pH 7.4 at 25° C.) was less than 1 µg/mL; in series [1] (deionised water, 25 °C, water), less than 0.1 µg/mL. In series [1] (earlier formulation studies), the “dissolution in soybean oil based emulsions” value was “did not dissolve appropriately”. Also, the “exposure to elacytarabine compared to cytarabine (Ara-C)” value in series [2] is recorded as not below 10 fold. The “effect against resistant cells compared with corresponding non-resistant cell line” value in series [3] and in series [4] was “same effect” in each case. Also, the tolerability result in series [5] (also by elderly patients) is recorded as “well tolerated”. For the same molecule, in series [5] (phase II AML patients), the side effects entry is “predictable and manageable”.
